{
  "source": "patent US20070149481A1",
  "about": "“N,n-bridged, nitrogen-substituted carbacyclic indolocarbazoles as protein kinase inhibitors” (priority 2002, published 2007)",
  "key": {"[1]": {"assay": "Solubility of free base NAD0241 and its hydrochloride salt in 99/1 water/DMSO", "assay_type": "physicochemical", "details": "18 hours equilibration at room temperature, duplicate experiments", "method": "Stock solutions of NAD0241 (100 mM) and of its hydrochloride salt ([…]) in DMSO (UV-grade) were prepared freshly before the experiment and further diluted to a final concentration of 10 mM. These stock solutions in 100% DMSO were diluted with water (UV grade) to provide five 99/1 water/DMSO samples with varying concentrations of the compound (1000, 500, 100, 50 and 10 μM).\nEach sample was thoroughly mixed by rigorous vortexing (30 seconds) followed by equilibration for 18 hours at room temperature. A […] for each sample was transferred into 1.5 mL polypropylene tubes and centrifuged for 30 minutes at room temperature at 16000 g in a fixed angle tabletop centrifuge (Heraeus Biofuge pico equipped with #3325 rotor). The supernatant was pipetted into a quartz glass cuvette and UV-absorption (322 nm) was measured in a UV spectrophotometer (Varian Cary 50). Each experiment was run in duplicate."}, "GSK3β": {"molecular_target": "T1, GSK3β (Homo sapiens, UniProt P49841)", "T1 construct": "purchased Upstate Discovery", "T1 sequence (P49841 whole entry, species assumed)": "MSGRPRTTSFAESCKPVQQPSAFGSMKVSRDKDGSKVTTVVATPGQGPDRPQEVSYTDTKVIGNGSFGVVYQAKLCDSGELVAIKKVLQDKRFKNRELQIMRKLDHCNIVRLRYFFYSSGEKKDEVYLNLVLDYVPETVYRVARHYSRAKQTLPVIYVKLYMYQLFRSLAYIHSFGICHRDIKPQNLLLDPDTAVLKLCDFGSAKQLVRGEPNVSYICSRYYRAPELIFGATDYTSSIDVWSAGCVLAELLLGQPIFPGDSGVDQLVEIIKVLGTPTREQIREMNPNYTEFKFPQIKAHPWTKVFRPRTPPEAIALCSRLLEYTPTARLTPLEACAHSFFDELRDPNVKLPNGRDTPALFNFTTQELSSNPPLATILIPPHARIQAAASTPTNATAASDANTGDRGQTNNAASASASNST", "assay": "Glycogen Synthase Kinase 3β inhibition assay (GSK3β)", "assay_type": "biochemical", "details": "10 μM compound", "method": "The GSK3β kinase activity assay utilizes a radioactivity-based format in a 96-well PCR plate with radioactive readout. The GSK3 β activity was assayed in a 25 μL assay mixture containing 8 mM HEPES (pH 7.0), 250 μM ATP, 0.2 mM EDTA (pH 8), 2% DMSO, 250 ng/mL Myelin Basic Protein (MBP, Sigma M-1891), and 12 ng/mL GSK3β (Upstate Discovery, specific activity=607 nmol/min*GS2 peptide, concentration of 6.05 mg/mL). Compounds were screened for inhibition of the GSK3β kinase activity at a concentration of 10 μM. The kinase reaction was allowed to proceed at 37° C. for 30 minutes, then the reaction was stopped by addition of 5 μL of 0.5M EDTA (pH 8)."}, "His tagged ERK2": {"molecular_target": "His tagged ERK2 (Homo sapiens, UniProt P28482)", "sequence (P28482 whole entry)": "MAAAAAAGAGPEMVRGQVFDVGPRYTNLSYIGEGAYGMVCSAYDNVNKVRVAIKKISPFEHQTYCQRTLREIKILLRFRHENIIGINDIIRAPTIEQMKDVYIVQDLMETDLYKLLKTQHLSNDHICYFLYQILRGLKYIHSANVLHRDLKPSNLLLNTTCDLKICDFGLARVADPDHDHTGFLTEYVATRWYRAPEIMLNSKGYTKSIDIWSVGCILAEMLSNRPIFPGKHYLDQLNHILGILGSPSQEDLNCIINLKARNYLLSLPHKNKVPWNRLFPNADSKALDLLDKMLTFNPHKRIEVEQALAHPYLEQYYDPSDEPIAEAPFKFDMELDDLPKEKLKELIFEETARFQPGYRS", "assay": "Extracellular signal Regulated Kinase 2 inhibition assay (ERK2), radioactive filtermat format", "assay_type": "biochemical", "details": "10 μM compound", "method": "(§1) The ERK2 kinase activity assay utilizes a radioactivity-based format in a 96-well PCR plate with radioactive readout. The ERK2 activity was assayed in a 25 μL assay mixture containing 25 mM HEPES (pH 7.0), 250 μM ATP, 1 mM MgCl2, 1 mM DTT, 2% DMSO, 150 ng/mL Myelin Basic Protein (MBP, Sigma M-1891), and 13.6 ng/mL His tagged ERK2 (specific activity=38.1 nmol/min*mg). Compounds were screened for inhibition of the ERK2 kinase activity at a concentration of 10 μM. The kinase reaction was allowed to proceed at 37° C. for 30 minutes, then reaction was stopped by the addition of 5 μl of 0.5M EDTA (pH 8). 15 μL of each solution were then spotted onto the corresponding square of a filtermat (8×12 glassfibre mat 90×120 mm, PE-Wallac 1450-421). The filtermat was allowed to dry and washed once with 10% TCA, 2% PPA, 500 mM NaCl each for 30 minutes at rt. Two further washings in 10% TCA and 2% PPA for 30 minutes were performed, then a final 30 minute wash in 99% EtOH at rt was done and the filtermat was air dried. The dry filtermat was then placed in a sample bag with a Meltilex sheet (Melt-on scintillator sheets 73×109 mm, PE-Wallac 1450-441 for filtermat A) over the filtermat. The bag was trimmed to fit into the microplate heatsealer (PE-Wallac 1495-021). The heatsealer is used to melt the Meltilex on the filtermat. The bag containing the filtermat and the melted Meltilex was then placed into a filter cassette and counted using the Microbeta Jet Scintillation and Luminescence Counter PE-Wallac 1450."}, "PKC (rat brain)": {"test_system": "PKC (rat brain)", "assay": "Protein Kinase C inhibition assay (PKC)", "assay_type": "biochemical", "details": "10 μM compound", "method": "as §1\nThe PKC kinase activity assay utilizes a radioactivity-based format in a 96-well PCR plate with radioactive readout. The PKC activity was assayed in a 25 μL assay mixture containing 25 mM HEPES (pH 7.0), 250 μM ATP, 10 mM MgCl2, 1 mM DTT, 1 mM EDTA (pH 8), 2 mM CaCl2, 2% DMSO, 250 ng/mL Histone H1 (Roche 1 004 875), and 165 ng/mL PKC (rat brain, Calbiochem 539494, specific activity=1600 nmol/min*mg). Compounds were screened for inhibition of the PKC kinase activity at a concentration of 10 μM. The kinase reaction was allowed to proceed at 37° C. for 30 minutes, then the reaction was stopped by addition of 5 μL of 0.5M EDTA (pH 8). The remainder of the protocol is identical to the one reported for ERK2."}, "[2]": {"molecular_target": "T2, PKA (catalytic subunit, bovine heart) (Bos taurus, UniProt P00517)", "T2 construct": "PKA (catalytic subunit, bovine heart, Calbiochem 539486); purchased Calbiochem 539486; host or cells: bovine heart (tissue-derived)", "assay": "Protein Kinase A inhibition assay (PKA)", "assay_type": "biochemical", "details": "10 μM compound", "method": "as §1\nThe PKA kinase activity assay utilizes a radioactivity-based format in a 96-well PCR plate with radioactive readout. The PKA activity was assayed in a 25 μL assay mixture containing 25 mM HEPES (pH 7.0), 250 μM ATP, 10 mM MgCl2, 1 mM DTT, 1 mM EDTA (pH 8). 2% DMSO. 250 ng/mL Histone H2B (Roche 223 514), and 2 ng/mL PKA (catalytic subunit, bovine heart, Calbiochem 539486, specific activity=1170 pmol/min*μg). Compounds were screened for inhibition of the PKA kinase activity at a concentration of 10 μM. The kinase reaction was allowed to proceed at 37° C. for 30 minutes, then the reaction was stopped by addition of 5 μL of 0.5M EDTA (pH 8). The remainder of the protocol is identical to the one reported for ERK2."}},
  "note": "Where “and” joins values, the source holds several entries; their conditions need not be identical. Equal entries are not always repeated.",
  "data": [
    {"smiles": "Cl.NC(=O)C1(N)CC2CC1n1c3ccccc3c3c4c(c5c6ccccc6n2c5c31)C(=O)NC4=O", "note": "(stereo not drawn) [NAD0241-hydrochloride salt]", "values": [
      {"measurement": "solubility limit in water containing 1% DMSO", "setting": "[1]", "result": "170 mgL^−1 and 214 mgL^−1"}
    ]},
    {"smiles": "COc1ccc(CN2C(=O)c3c(c4c5ccccc5n5c4c4c3c3ccccc3n4C3CC(N4CCCCC4)C5C3)C2=O)cc1", "note": "(stereo not drawn) [Compound 24]", "values": [
      {"measurement": "% Inhibition GSK3β", "setting": "GSK3β", "result": "NA (NA = <10% inhibition)"},
      {"measurement": "% Inhibition ERK2", "setting": "His tagged ERK2", "result": 28.09, "unit": "%"},
      {"measurement": "% Inhibition PKC", "setting": "PKC (rat brain)", "result": 28.18, "unit": "%"},
      {"measurement": "% Inhibition PKA", "setting": "[2]", "result": 10.67, "unit": "%"}
    ]},
    {"smiles": "COc1ccc(CN2C(=O)c3c(c4c5ccccc5n5c4c4c3c3ccccc3n4C3CC5[C@@H](N4CCOCC4)C3)C2=O)cc1", "note": "(stereo partly drawn) [Compound 26]", "values": [
      {"measurement": "inhibition at 10 µM", "setting": "GSK3β", "result": "< 10", "unit": "%"},
      {"measurement": "inhibition at 10 µM", "setting": "His tagged ERK2", "result": 67.6, "unit": "%"},
      {"measurement": "% Inhibition PKC", "setting": "PKC (rat brain)", "result": 10.18, "unit": "%"},
      {"measurement": "inhibition at 10 µM", "setting": "[2]", "result": "< 10", "unit": "%"}
    ]},
    {"smiles": "COC(=O)c1cn([C@@H]2C3CC([C@H]2O)n2c4ccccc4c4c5c(c6c7ccccc7n3c6c42)C(=O)NC5=O)nn1", "note": "(mixture of isomers) [Compound 17]", "values": [
      {"measurement": "inhibition at 10 µM", "setting": "GSK3β", "result": 12.1, "unit": "%"},
      {"measurement": "inhibition at 10 µM", "setting": "His tagged ERK2", "result": "< 10", "unit": "%"},
      {"measurement": "% Inhibition PKC", "setting": "PKC (rat brain)", "result": 96.75, "unit": "%"},
      {"measurement": "inhibition at 10 µM", "setting": "[2]", "result": "< 10", "unit": "%"}
    ]},
    {"smiles": "CNC1(C#N)CC2CC1n1c3ccccc3c3c4c(c5c6ccccc6n2c5c31)C(=O)N(Cc1ccc(OC)cc1)C4=O", "note": "(stereo not drawn) [Compound 27]", "values": [
      {"measurement": "% Inhibition GSK3β", "setting": "GSK3β", "result": 18.28, "unit": "%"},
      {"measurement": "% Inhibition ERK2", "setting": "His tagged ERK2", "result": 63.52, "unit": "%"},
      {"measurement": "% Inhibition PKC", "setting": "PKC (rat brain)", "result": 32.18, "unit": "%"},
      {"measurement": "% Inhibition PKA", "setting": "[2]", "result": 30.19, "unit": "%"}
    ]},
    {"smiles": "[N-]=[N+]=NC1C2CC([C@H]1O)n1c3ccccc3c3c4c(c5c6ccccc6n2c5c31)C(=O)NC4=O", "note": "(mixture of isomers) [Compound 15]", "values": [
      {"measurement": "inhibition at 10 µM", "setting": "GSK3β", "result": 96.9, "unit": "%"},
      {"measurement": "inhibition at 10 µM", "setting": "His tagged ERK2", "result": 94.6, "unit": "%"},
      {"measurement": "% Inhibition PKC", "setting": "PKC (rat brain)", "result": 88.68, "unit": "%"},
      {"measurement": "inhibition at 10 µM", "setting": "[2]", "result": 79.8, "unit": "%"}
    ]}
  ]
}
